Laboratory results taken from PubChem BioAssay AID1963867 (Molecular Pharmacology Branch, DTP, NCI, 2024).

System: KRAS-mutant PDC tumor spheroid with HUVEC/MSC, viability
Experiment: Anticancer human tumor 327498-153-R-J2-PDC patient-derived uterine carcinosarcoma cell line growth inhibition [KRAS2]
Settings: for IC50: curve of first compound; for viability, T/C: stronger effect = lower value
In short: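 KRAS-mutant tumor cells were grown as spheroids with HUVEC endothelial cells and human MSCs as stroma. Targeted agents were tested alone and with KRAS pathway inhibitors. Doses started at or near clinical Cmax, or 10 microM, descending half-log.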

[1] = second compound 0.1 µM, first compound 0.0316 µM
[2] = second compound 0.1 µM, first compound 0.1 µM
[3] = second compound 0.316 µM, first compound 0.0316 µM
[4] = second compound 0.316 µM, first compound 0.1 µM
[5] = second compound 1 µM, first compound 0.0316 µM
[6] = second compound 1 µM, first compound 0.1 µM
[7] = second compound 3.16 µM, first compound 0.0316 µM
[8] = second compound 3.16 µM, first compound 0.1 µM
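Further: spheroids exposed to agents for seven days before reading.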
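Wherever viability, T/C is given: 100% = DMSO vehicle wells so lower means fewer viable cells.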

COc1cc2nccc(Oc3ccc(NC(=O)C4(C(=O)Nc5ccc(F)cc5)CC4)cc3)c2cc1OC + C=CC(=O)N1CCN(c2nc(OCC3CCCN3C)nc3c2CCN(c2cccc4cccc(C)c24)C3)CC1CC#N
IC50 (second compound 0.0316 µM): 1.29 µM
IC50 (second compound 0.1 µM): < 0.0316 µM
IC50 (second compound 0.316 µM): < 0.0316 µM
IC50 (second compound 1 µM): < 0.0316 µM
IC50 (second compound 3.16 µM): < 0.0316 µM
viability, T/C (second compound 0.0316 µM, first compound 0.0316 µM): 60.9%
viability, T/C (second compound 0.0316 µM, first compound 0.1 µM): 55.4%
viability, T/C (second compound 0.0316 µM, first compound 0.316 µM): 55.6%
viability, T/C (second compound 0.0316 µM, first compound 1 µM): 63.9%
viability, T/C (second compound 0.0316 µM, first compound 3.16 µM): 18.4%
viability, T/C (second compound 0.0316 µM, first compound 10 µM): 0.28%
viability, T/C [1]: 48.4%
viability, T/C [2]: 50%
viability, T/C (second compound 0.1 µM, first compound 0.316 µM): 50.4%
viability, T/C (second compound 0.1 µM, first compound 1 µM): 47.8%
viability, T/C (second compound 0.1 µM, first compound 3.16 µM): 17.3%
viability, T/C (second compound 0.1 µM, first compound 10 µM): 0.84%
viability, T/C [3]: 45%
viability, T/C [4]: 48.5%
viability, T/C (second compound 0.316 µM, first compound 0.316 µM): 52.1%
viability, T/C (second compound 0.316 µM, first compound 1 µM): 45%
viability, T/C (second compound 0.316 µM, first compound 3.16 µM): 15%
viability, T/C (second compound 0.316 µM, first compound 10 µM): 0.62%
viability, T/C [5]: 44.1%
viability, T/C [6]: 40.3%
viability, T/C (second compound 1 µM, first compound 0.316 µM): 39.3%
viability, T/C (second compound 1 µM, first compound 1 µM): 43.3%
viability, T/C (second compound 1 µM, first compound 3.16 µM): 11.1%
viability, T/C (second compound 1 µM, first compound 10 µM): 0.15%
viability, T/C [7]: 0.22%
viability, T/C [8]: 0.17%
viability, T/C (second compound 3.16 µM, first compound 0.316 µM): 0.17%
viability, T/C (second compound 3.16 µM, first compound 1 µM): 0.16%
viability, T/C (second compound 3.16 µM, first compound 3.16 µM): 0.13%
viability, T/C (second compound 3.16 µM, first compound 10 µM): 0.24%

CCNC(=O)CC1N=C(c2ccc(Cl)cc2)c2cc(OC)ccc2-n2c(C)nnc21 (centres undefined)
viability, T/C (compound 0.0316 µM): 102% [middle of 5 runs]
viability, T/C (compound 0.1 µM): 95.9% [middle of 5 runs]
viability, T/C (compound 0.316 µM): 77.6% [middle of 5 runs]
viability, T/C (compound 1 µM): 64.8% [middle of 5 runs]

Cn1ncnc1[C@H]1c2n[nH]c(=O)c3cc(F)cc(c23)N[C@@H]1c1ccc(F)cc1 + CNCc1ccccc1-c1csc(C(C)Nc2nc(C)nc3cc(OC)c(OC)cc23)c1
IC50 (second compound 0.1 µM): 0.0184 µM
IC50 (second compound 0.316 µM): 0.0107 µM
IC50 (second compound 1 µM): 0.00581 µM
IC50 (second compound 3.16 µM): < 0.000316 µM
IC50 (second compound 10 µM): < 0.000316 µM
viability, T/C (second compound 0.1 µM, first compound 0.000316 µM): 84%
viability, T/C (second compound 0.1 µM, first compound 0.001 µM): 81.7%
viability, T/C (second compound 0.1 µM, first compound 0.00316 µM): 81.6%
viability, T/C (second compound 0.1 µM, first compound 0.01 µM): 62.9%
viability, T/C [1]: 38%
viability, T/C [2]: 19.7%
viability, T/C (second compound 0.316 µM, first compound 0.000316 µM): 72.8%
viability, T/C (second compound 0.316 µM, first compound 0.001 µM): 70.2%
viability, T/C (second compound 0.316 µM, first compound 0.00316 µM): 61.7%
viability, T/C (second compound 0.316 µM, first compound 0.01 µM): 54.4%
viability, T/C [3]: 28.2%
viability, T/C [4]: 19.9%
viability, T/C (second compound 1 µM, first compound 0.000316 µM): 63.2%
viability, T/C (second compound 1 µM, first compound 0.001 µM): 68.8%
viability, T/C (second compound 1 µM, first compound 0.00316 µM): 53.7%
viability, T/C (second compound 1 µM, first compound 0.01 µM): 44.5%
viability, T/C [5]: 30.9%
viability, T/C [6]: 21.7%
viability, T/C (second compound 3.16 µM, first compound 0.000316 µM): 0.09%
viability, T/C (second compound 3.16 µM, first compound 0.001 µM): 0.09%
viability, T/C (second compound 3.16 µM, first compound 0.00316 µM): 0.1%
viability, T/C (second compound 3.16 µM, first compound 0.01 µM): 0.07%
viability, T/C [7]: 0.06%
viability, T/C [8]: 0.15%
viability, T/C (second compound 10 µM, first compound 0.000316 µM): 0.12%
viability, T/C (second compound 10 µM, first compound 0.001 µM): 0.11%
viability, T/C (second compound 10 µM, first compound 0.00316 µM): 0.12%
viability, T/C (second compound 10 µM, first compound 0.01 µM): 0.12%
viability, T/C (second compound 10 µM, first compound 0.0316 µM): 0.16%
viability, T/C (second compound 10 µM, first compound 0.1 µM): 0.34%
